Test results published in patent US5432270A, “DNA encoding tracheal antimicrobial peptides” (priority 1993, dated 1995).

Experiments:
Assay in all cases: Minimal inhibitory concentration in 0.25x TSB, microtiter plates
Assay type in all cases: cell-based
[1] = system: Candida albicans (ATCC 14053)
Procedure: (§1) Antimicrobial activity of TAP (SEQ ID NO: 1) and
(§2) Magainin 2-NH2 (SEQ ID NO: 6). Minimal inhibitory
(§3) concentrations were determined by incubating approximately
(§4) 3.125 μg/ml of the appropriate peptide.

[2] = system: Pseudomonas aeruginosa (ATCC 27853); settings: 2.5 × 10^4 microbe in 0.25× TSB, overnight 37° C.
Procedure: as §1, §2, §3, §4

[3] = system: Staphylococcus aureus (ATCC 25923); settings: 2.5 × 10^4 microbe in 0.25× TSB, overnight 37° C.
Procedure: as §1, §2, §3, §4

[4] = system: Klebsiella pneumonia (ATCC 13883)
Procedure: as §1, §2, §3, §4

[5] = system: Escherichia coli strain D31; settings: E. coli
Procedure: as §1, §2, §3, §4
*strain D31 (Steiner, H. D., Hultmark, A., supra, (1981)

## TAP: 38-residue cysteine-rich antimicrobial peptide purified from bovine tracheal mucosa, SEQ ID NO:1 (NPVSCVRNKGICVPIRCPGSMKQIGTCVGRAVKCCRKK)
[1]; C. albicans
  Antimicrobial activity in vitro (in words): significant antimicrobial activity
[1]; Candida albicans ATCC 14053, 2.5 × 10^4 microbe in 0.25× TSB, overnight 37° C.
  Minimal inhibitory concentration: 6.25 to 12.5 µg/mL
[2]
  Minimal inhibitory concentration: 25 to 50 µg/mL
[3]
  Minimal inhibitory concentration: 25 to 50 µg/mL
[4]; K. pneumonia
  Antimicrobial activity in vitro (in words): most active
[4]; Klebsiella pneumonia ATCC 13883, 2.5 × 10^4 microbe in 0.25× TSB, overnight 37° C.
  Minimal inhibitory concentration: 12.5 to 25 µg/mL
[5]
  Antimicrobial activity in vitro (in words): most active
